IC50 data for 1 compound are collected here from patent US4912107A, “Pyrrolocarbazole derivatives, compositions containing them, and methods for using them” (Goedecke Aktiengesellschaft, priority 1988, dated 1990).

The target of the assay is protein kinase C. Kind of assay: enzyme assay of protein kinase C activated with phosphatidylserine and diacylglycerol. Particulars: protein kinase C activated with phosphatidylserine and iacylglycerol; according to EP-OS 0 255 126; read-out: concentration giving 50% inhibition of protein kinase C. It is filed as biochemical. The method, then: Compounds of the present invention are potent inhibitors of protein kinases, such as protein kinase C. […] The experiment was carried out according to EP-OS 0 255 126 (inhibition of protein kinase C).

Take `CCn1c2ccccc2c2c3c(c(-c4ccccc4Cl)cc21)C(=O)NC3=O` [Example 2a, 4-(2-Chlorophenyl)-6-ethyl-1,2,3,6-tetrahydro-1,3-dioxopyrrolo[3,4-c]carbazole]: the IC50 is 580 nM.
